# Results reported in PubChem BioAssay (NCI).
# Values joined by “and” are separate entries in the source; they are usually repeats but may differ in a detail not shown here. Equal entries are not always repeated.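 Protocol summary: plate cells (96-well), add compound at 5 concentrations, incubate 48 h, interpolate endpoints linearly. The concentration for 50% growth inhibition is given as GI50. At the TGI there is no net growth.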
# What was measured:
# Experiment in all cases: NCI tumour cell line growth inhibition, 48 h
# [1] = tested on: SF-268 CNS
# [2] = tested on: MOLT-4 leukemia
# [3] = tested on: MALME-3M melanoma
# [4] = tested on: NCI-H460 lung
# [5] = tested on: COLO 205 colon
# [6] = tested on: OVCAR-5 ovarian
# [7] = tested on: HOP-92 NSCLC
# [8] = tested on: SK-MEL-2 melanoma
# [9] = tested on: EKVX NSCLC
Structure (SMILES),TGI [1] [µM],TGI [2],TGI [3] [µM],TGI [4] [µM],TGI [5] [µM],TGI [6] [µM],TGI [7] [µM],TGI [8],TGI [9] [µM],GI50 [1] [µM],GI50 [2],GI50 [3] [µM],GI50 [4] [µM],GI50 [5] [µM],GI50 [6] [µM],GI50 [7] [µM],GI50 [8] [µM],GI50 [9]
COc1ccc(-c2cc(=O)c3ccccc3o2)cc1N,> 100,> 100 µM,> 100,> 100,> 100,> 100,> 100,> 100 µM,> 100,,,,,,,,,
CC(C)[O-].CC(C)[O-].O=C1C=C([O-])C(=O)c2ccccc21.O=C1C=C([O-])C(=O)c2ccccc21.[Ti+4],> 100,> 100 µM,> 100,> 100,> 100,> 100,> 100,> 71.2 µM,> 91.1,> 100,> 100 µM,14.7,15.3,30,> 100,> 100,17.2,> 44.8 µM
O=C(CCc1nnc2s/c(=C\c3ccc(Cl)c(Cl)c3)c(=O)n12)Nc1ccc(Cl)c(Cl)c1,> 100,52.6 µM,> 100,> 100,> 100,> 100,> 100,,> 100,,,,,,,,,
COC(=O)CC[C@]1(C)O[C@H]2[C@H]([C@@H](C)CCCC(C)=O)OC(=O)[C@@H]2C[C@H]1O,> 100,> 100 µM,,> 100,> 100,> 100,> 100,> 100 µM,> 100,> 100,> 100 µM,,> 100,> 100,> 100,> 100,> 100,> 100 µM
O=C(Nc1ccc(Cl)cc1Cl)C1C(=O)C(=O)N(c2ccc(Cl)cc2Cl)C1=O (stereo not given),> 100,,> 100,> 100,,> 100,,,> 100,,,,,,,,,
COc1ccc2c3c([nH]c2c1[N+](=O)[O-])C(C)N(Cc1ccc([N+](=O)[O-])cc1)CC3 (stereo not given),9.22,> 100 µM,,34.7,35.8,> 100,,41 µM,> 100,,,,,,,,,
COc1cc(OC)c(SSCCCCS(=O)O)c(OC)c1,44,26.8 µM,31,38.1,35.7,30.5,,54.6 µM,31.3,,,,,,,,,
CCOc1ccc(N=Cc2ccc3cc(C)ccc3n2)cc1,> 100,76.7 µM,> 100,> 100,> 100,> 100,> 100,> 100 µM,> 100,,,,,,,,,
C/C=C1\C=C(OC)CN(CCc2c[nH]c3ccccc23)C1,95.5,> 100 µM,56.8,> 100,> 100,,,> 100 µM,> 100,,,,,,,,,
CCN(CC)CCCNC(=O)C1COc2cc(-c3cc(=O)c4ccccc4o3)ccc2O1 (stereo not given),> 100,> 100 µM,36.8,> 100,81.4,> 100,> 100,,> 100,,,,,,,,,
Cc1ccccc1NC(=O)c1c(C)oc2c1C(=O)c1ccccc1C2=O,> 100,47.4 µM,27.3,> 100,> 100,> 100,65.2,> 72.3 µM,> 100,,,,,,,,,
Cn1nc(-c2ccccc2)c(C(=O)/C=C/c2ccc(Cl)cc2)c(N2CCCCC2)c1=O,,4.65 µM,,7.4,4.35,,5.14,,15.3,,,,,,,,,
CCOC(=O)N1c2c(ccn2C)-c2ccn(C)c2N1C(=O)OCC,38.7,40.4 µM,37.1,49.3,57.1,35.5,63.7,38.8 µM,,,,,,,,,,
O=C1O[C@H](c2ccccc2)[C@@H]2CC3(CCN12)OCCO3,> 100,> 100 µM,,> 100,> 100,> 100,> 100,> 100 µM,> 100,,,,,,,,,
CC(=O)OC[C@]1(C)CCCC2(C)C1CCC1C=C(C)[C@H]3CCC12C3 (stereo not given in full),> 100,> 100 µM,> 100,> 100,> 100,> 100,,,,,,,,,,,,
CC(C)(C)CC(C)(C)c1cc2c(O)c(c1)Cc1cc(C(C)(C)CC(C)(C)C)cc(c1O)Cc1cc(C(C)(C)CC(C)(C)C)cc(c1O)Cc1cc(C(C)(C)CC(C)(C)C)cc(c1O)Cc1cc(C(C)(C)CC(C)(C)C)cc(c1O)C2,> 100,> 100 µM,> 100,> 100,> 100,> 100,> 100,> 100 µM,> 100,,,,,,,,,

Structure (SMILES),TGI [1] [µM],TGI [2],TGI [3] [µM],TGI [4] [µM],TGI [5] [µM],TGI [6] [µM],TGI [7] [µM],TGI [8],TGI [9] [µM],GI50 [1] [µM],GI50 [2],GI50 [3] [µM],GI50 [4] [µM],GI50 [5] [µM],GI50 [6] [µM],GI50 [7] [µM],GI50 [8] [µM],GI50 [9]
O=C(O)Cc1cc(=O)[nH]c2c1/C(=N/O)CCC2,> 100,> 100 µM,> 100,> 100,,> 100,> 100,> 100 µM,> 100,,,,,,,,,
CC(=O)[CH-]C(=O)c1ccccc1.CC(=O)[CH-]C(=O)c1ccccc1.CC(C)CCCC(C)[C@H]1CCC2[C@@H]3CC=C4C[C@@H]([O-])CC[C@]4(C)C3CC[C@@]21C.CC(C)CCCC(C)[C@H]1CCC2[C@@H]3CC=C4C[C@@H]([O-])CC[C@]4(C)C3CC[C@@]21C.[Ti+4] (stereo not given in full),> 100,> 100 µM,,> 100,> 100,,> 100,> 100 µM,,> 100,> 100 µM,,> 100,> 100,,> 100,> 100,
CC1=C[C@]2(O)C(=O)[C@H](C)C[C@H]3[C@@H](CC[C@@](C)(O)/C=C\2C1=O)C3(C)C,52.1,> 62 µM,54.4,> 57.6,30.6,> 100,48.2,37.9 µM,> 100,,,,,,,,,
O=C1Cc2c([nH]c3ccccc23)-c2ccccc2N1,> 100,94.3 µM,> 100,> 100,45.9,67.4,> 100,> 100 µM,> 100,,,,,,,,,
CC1=C(C(=O)Nc2cc(=O)n(C)c(=O)n2C)C(c2cccc([N+](=O)[O-])c2)C(C(=O)Nc2cc(=O)n(C)c(=O)n2C)=C(C)N1,> 100,> 100 µM,> 100,> 100,> 100,> 100,> 100,> 100 µM,> 100,,,,,,,,,
C#CCOCn1cnc2c(Sc3c([N+](=O)[O-])ncn3C)ncnc21,> 100,,> 100,> 100,> 100,> 100,> 100,> 100 µM,> 100,,,,,,,,,
CCOC(=O)Cc1ccc2c(c1O)C(=O)c1c(ccc(CC(=O)OCC)c1O)C2=O,> 100,> 100 µM,> 100,,> 100,> 100,> 100,> 100 µM,> 100,,,,,,,,,
COc1cc(Nc2nc3ccccc3nc2NS(=O)(=O)c2ccc(NC(=O)c3ccc(C)c(OC)c3)cc2)cc(OC)c1,> 100,45.7 µM and 43.3 µM and > 10 µM,,> 100,,> 100,,22.6 µM and 32.8 µM and 3.83 µM,,,4.58 µM and 14.4 µM and 2.25 µM,,,,,,,4.62 µM and 0.935 µM
O=C1[C@H]2ON(c3ccccc3)C(c3ccccc3)[C@H]2C(=O)N1c1ccc(Cc2ccc(N3C(=O)[C@@H]4ON(c5ccccc5)C(c5ccccc5)[C@@H]4C3=O)cc2)cc1 (stereo not given in full),> 100,> 100 µM,> 100,> 100,> 100,> 100,> 100,> 100 µM,,,,,,,,,,
O=C(c1ccccc1)c1c(-c2ccccc2)sc2nc3ccccc3nc12,> 100,> 100 µM,> 100,> 100,> 100,> 100,> 100,> 100 µM,> 100,,,,,,,,,
CC(=O)OC1CCn2nnc(CO)c21 (stereo not given),,> 100 µM,> 100,> 100,> 100,> 100,> 100,> 100 µM,> 100,,,,,,,,,
C[C@]12CCC(=O)C(O)=C1CC[C@@H]1C2CC[C@]2(C)NC(=O)CCC12 (stereo not given in full),> 100,> 100 µM,> 100,> 100,> 100,> 100,> 100,> 100 µM,> 100,,,,,,,,,
CC(=O)c1cccc(C)c1C(=O)O,> 100,> 100 µM,> 100,> 100,> 100,> 100,,> 100 µM,> 100,,,,,,,,,
Cc1cc(-c2nc3sccn3c2/C=N/N=C(N)N)c(C)s1,31.7,60.7 µM,,30.4,,26.9,,,23.4,16.6,17.6 µM,,16.8,,14,,,10.5 µM
O=C1C=CC(=O)C12CCc1ccccc12,> 100,> 100 µM,> 100,> 100,> 100,> 100,> 100,> 100 µM,> 100,,,,,,,,,
CC(=O)CC(N)=O,> 100,> 100 µM,> 100,> 100,> 100,> 100,> 100,> 100 µM,> 100,,,,,,,,,
